Measured values from patent publication US10654834B2 (Venenum Biodesign, LLC, priority 2016, dated 2020).

Key:
human TGR5 receptor = biological target: T1, human TGR5 receptor (Homo sapiens, UniProt Q8TDU6); experiment: Human TGR5 cAMP production assay (hTGR5-CHO cells, DiscoveRx cAMP XS+ kit); type: cell-based; conditions: luminescent cAMP assay, read-out: Human TGR5 Lum. cAMP Activity (EC50)
T1 construct: host or cells: CHO-K1 (hTGR5-CHO)
T1 sequence (Q8TDU6 1-330): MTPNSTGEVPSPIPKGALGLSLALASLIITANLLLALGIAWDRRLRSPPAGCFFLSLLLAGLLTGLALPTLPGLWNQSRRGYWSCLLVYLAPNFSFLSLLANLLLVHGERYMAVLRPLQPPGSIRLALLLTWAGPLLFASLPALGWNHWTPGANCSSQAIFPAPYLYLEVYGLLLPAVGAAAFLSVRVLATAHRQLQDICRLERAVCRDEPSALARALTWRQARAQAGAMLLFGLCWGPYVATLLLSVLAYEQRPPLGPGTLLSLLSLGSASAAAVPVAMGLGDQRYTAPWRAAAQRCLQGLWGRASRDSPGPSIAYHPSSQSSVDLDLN
How it was run: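 EC50 values come from luminescent enzyme-complementation cAMP detection, read after overnight incubation. Beforehand, hTGR5-expressing CHO-K1 cells with IBMX and anti-cAMP antibody were exposed 1 h at room temperature to serially diluted (half-log) compounds.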

mouse TGR5 receptor = biological target: T2, mouse TGR5 receptor (Mus musculus, UniProt Q80SS6); experiment: Mouse TGR5 luminescent cAMP production assay (HEK293-EBNA cells, DiscoveRx cAMP XS+ kit); type: cell-based; conditions: HEK293-EBNA cells overexpressing mouse TGR5, luminescent cAMP assay; read-out: Mouse TGR5 Lum. cAMP Activity (EC50)
T2 construct: host or cells: HEK293-EBNA (293 c18, ATCC CRL10852)
T2 sequence (Q80SS6 1-329): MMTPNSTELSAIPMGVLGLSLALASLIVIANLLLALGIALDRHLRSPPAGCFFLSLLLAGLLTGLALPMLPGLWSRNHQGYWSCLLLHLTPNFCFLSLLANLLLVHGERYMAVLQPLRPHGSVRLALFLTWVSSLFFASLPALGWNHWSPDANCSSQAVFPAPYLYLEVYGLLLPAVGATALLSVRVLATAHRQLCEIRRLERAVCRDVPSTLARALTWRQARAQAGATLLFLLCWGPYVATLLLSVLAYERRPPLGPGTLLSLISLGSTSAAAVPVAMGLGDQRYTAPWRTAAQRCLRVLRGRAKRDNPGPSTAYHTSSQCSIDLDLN
Protocol: Mouse TGR5 cAMP Production Assay
Compounds of the present invention were evaluated for their ability to induce cAMP production in HEK-EBNA cells overexpressing the mouse TGR5 receptor. Human embryonic kidney cells (HEK293-EBNA) stably expressing mouse TGR5 receptor were established using the following procedure. Specifically, a commercially obtained gene encoding mouse TGR5 (accession number BC116914) from Thermo Scientific (Waltham, Mass.) was cloned into an episomal expression vector. The resulting expression plasmid was then transfected into 293 c18 (ATCC® CRL10852™) cells, which express the Epstein-Barr virus nuclear antigen EBNA1 and can support the replication of episomal vectors. Selection for the plasmid was maintained with Hygromycin B. Cells were cultured and maintained in DMEM (Sigma; cat #6429) supplemented with 10% Fetal Bovine Serum, 1% penicillin/streptomycin, 2 mM L-alanine L-glutamine (GlutaMax), and 250 μg/mL Hygromycin.
We developed two cAMP production assays.
(i) Luminescent cAMP Production Assay
In this first cAMP production assay, the cAMP production was measured using DiscoveRx's cAMP XS+ kit following the manufacturer's recommended protocol. Briefly, HEK293-EBNA cells stably overexpressing mouse TGR5 were harvested using non-enzymatic cell dissociation buffer (Sigma-Aldrich, St. Louis, Mo.), spun down, then resuspended in serum-free DMEM with 500 μM IBMX at a density of 1.25×10^6 cells/mL. 500 μL of cAMP antibody solution was added to 500 μL of cell suspension and incubated at room temperature for 20 min.
Test compounds were serially diluted (half-log dilutions) in DMSO and then further diluted 1:50 in PBS, 10 mM HEPES buffer. 2 μL of serially diluted compound was added to a 384-well low volume plate (Greiner cat #784075) and centrifuged briefly. 2 μl of the cell/cAMP antibody mixture was then added to each compound-containing well and allowed to incubate at room temperature for one (1) hour. Following incubation, the XS+ kits' ED/Lysis/CL Substrate Working Solution was prepared following the manufacturer's recommended protocol and 4 μL was added to each well of the plate. The plate was then incubated for one (1) hour at room temperature. Following incubation, 4 μL of (Enzyme Acceptor) EA reagent was added to the plate and allowed to incubate overnight at room temperature. Luminescent signal was then detected using the Viewlux instrument (PerkinElmer, Waltham, Mass.).
In Table 52, EC50 values for both human and mouse cells were determined according to the TGR5 cAMP assays described above. […]

| SMILES | EC50 (human TGR5 receptor) [nM] | EC50 (mouse TGR5 receptor) [nM] |
| --- | --- | --- |
| COc1cc(-c2cc(N3CCC[C@H]3C(=O)NCCc3ccc(C#N)cc3)nc(C(F)(F)F)n2)ccn1 [Compound 160, (S)-N-(4-cyanophenethyl)-1-(6-(2-methoxypyridin-4-yl)-2-(trifluoromethyl)pyrimidin-4-yl)pyrrolidine-2-carboxamide] | 1000 to 30000 | < 100 |
| N#Cc1ccc(CCNC(=O)[C@@H]2CCCN2c2cc(OC3CCNCC3)nc(C(F)(F)F)n2)cc1 [Compound 51, (S)-N-(4-cyanophenethyl)-1-(6-(piperidin-4-yloxy)-2-(trifluoromethyl)pyrimidin-4-yl)pyrrolidine-2-carboxamide] | 1000 to 30000 | 100 to 999 |
| CNC(=O)c1cc(-c2cc(N3CCC[C@H]3C(=O)NCCc3ccc(C#N)cc3)nc(C(F)(F)F)n2)cs1 [Compound 179, (S)—N-(4-cyanophenethyl)-1-(6-(5-(methylcarbamoyl)thiophen-3-yl)-2-(trifluoromethyl)pyrimidin-4-yl)pyrrolidine-2-carboxamide] | 1000 to 30000 | 1000 to 30000 |
| N#Cc1ccc(CCNC(=O)[C@@H]2CCCN2c2cc(Nc3ccncc3)nc(C(F)(F)F)n2)cc1 [Compound 14] | 1000 to 30000 | 1000 to 30000 |
| N#Cc1ccc(CCNC(=O)[C@@H]2CCCN2c2cc(-c3cccnc3)nc(C(F)(F)F)n2)cc1 [Compound 142, (S)-N-(4-cyanophenethyl)-1-(6-(pyridin-3-yl)-2-(trifluoromethyl)pyrimidin-4-yl)pyrrolidine-2-carboxamide] | 1000 to 30000 | 100 to 999 |
| O=C(NCCc1ccc(C(F)(F)F)cc1)[C@@H]1CCCN1c1cc(NCc2cccnc2)nc(C(F)(F)F)n1 [Compound 4] | 1000 to 30000 | 100 to 999 |
| CC(C)(C)OC(=O)NCCC1CCN(c2cc(N3CCC[C@H]3C(=O)NCCc3ccc(C#N)cc3)nc(C(F)(F)F)n2)CC1 [Compound 18] | 100 to 999 | 100 to 999 |
| N#Cc1ccc(CCNC(=O)C2CCN2c2cc(OC3CCOCC3)nc(C(F)(F)F)n2)cc1 (stereo not drawn) [Compound 244, N-(4-cyanophenethyl)-1-(6-((tetra-hydro-2H-pyran-4-yl)oxy)-2-(trifluoromethyl)pyrimidin-4-yl)azetidine-2-carboxamide] | 100 to 999 | < 100 |
| COc1cc(-c2cc(N3CCC[C@H]3C(=O)NCCc3ccc(C#N)cc3)nc(C(F)(F)F)n2)c(Cl)cn1 [Compound 161, (S)-1-(6-(5-chloro-2-methoxy-pyridin-4-yl)-2-(trifluoromethyl)pyrimidin-4-yl)-N-(4-cyanophenethyl)pyrrolidine-2-carboxamide] | 1000 to 30000 | < 100 |
| COc1cnccc1-c1cc(N2CCC[C@H]2C(=O)NCCc2ccc(C#N)cc2)nc(C(F)(F)F)n1 [Compound 159, (S)-N-(4-cyanophenethyl)-1-(6-(3-methoxypyridin-4-yl)-2-(trifluoromethyl)pyrimidin-4-yl)pyrrolidine-2-carboxamide] | 1000 to 30000 | < 100 |

More lines, now with the values ahead:

| EC50 (human TGR5 receptor) [nM] | EC50 (mouse TGR5 receptor) [nM] | SMILES |
| --- | --- | --- |
| 100 to 999 | 100 to 999 | N#Cc1ccc(CCNC(=O)[C@@H]2CCN2c2cc(-c3ccccn3)nc(C(F)(F)F)n2)cc1 [Compound 306, (S)-N-(4-cyanophenethyl)-1-(6-(pyridin-2-yl)-2-(trifluoromethyl)pyrimidin-4-yl)azetidine-2-carboxamide] |
| 100 to 999 | < 100 | N#Cc1ccc(CCNC(=O)[C@@H]2CCCN2c2cc(-c3ccsc3)nc(C(F)(F)F)n2)cc1 [Compound 158, (S)-N-(4-cyanophenethyl)-1-(6-(thiophen-3-yl)-2-(trifluoromethyl)pyrimidin-4-yl)pyrrolidine-2-carboxamide] |
| 100 to 999 | 100 to 999 | N#Cc1ccc(CCNC(=O)[C@@H]2CCN2c2cc(-c3ccncc3)nc(C(F)(F)F)n2)cc1 [Compound 303] |
| 100 to 999 | < 100 | N#Cc1ccc(CCNC(=O)[C@@H]2CCCN2c2cc(NCc3ccncc3)nc(C(F)(F)F)n2)cc1 [Compound 13] |
| 100 to 999 | < 100 | N#Cc1ccc(CCNC(=O)[C@@H]2CCCN2c2cc(-c3ccc4[nH]ccc4c3)nc(C(F)(F)F)n2)cc1 [Compound 157, (S)-1-(6-(1H-indol-5-yl)-2-(trifluoromethyl)pyrimidin-4-yl)-N-(4-cyanophenethyl)pyrrolidine-2-carboxamide] |
| < 100 | 100 to 999 | COCC1CCN(c2cc(N3CCC[C@H]3C(=O)NCCc3ccc(C(F)(F)F)cc3)nc(C(F)(F)F)n2)CC1 [Compound 8] |
| 100 to 999 | < 100 | CC(C)(C)OC(=O)NC1CCN(c2cc(N3CCC[C@H]3C(=O)NCCc3ccc(C#N)cc3)nc(C(F)(F)F)n2)CC1 [Compound 16] |
| < 100 | 100 to 999 | COCC1CCN(c2cc(N3CCC[C@@H](C(=O)NCCc4ccc(C#N)cc4)C3)nc(C(F)(F)F)n2)CC1 [Compound 310, (R)-N-(4-cyanophenethyl)-1-(6-(4-(methoxymethyl)piperidin-1-y1)-2-(trifluoromethyl)pyrimidin-4-yl)piperidine-3-carboxamide] |
| 100 to 999 | < 100 | CN(C)CC1CCN(c2cc(N3CC[C@H]3C(=O)NCCc3ccc(C#N)cc3)nc(C(F)(F)F)n2)CC1 [Compound 221, (S)-N-(4-cyanophenethyl)-1-(6-(4-((dimethylamino)methyl)piperidin-1-yl)-2-(trifluoromethyl)pyrimidin-4-yl)azetidine-2-carboxamide] |
| 100 to 999 | 100 to 999 | N#Cc1ccc(CCNC(=O)[C@@H]2CCCN2c2cc(-c3ccc(CN)cc3)nc(C(F)(F)F)n2)cc1 [Compound 185, (S)-1-(6-(4-(aminomethyl)phenyl)-2-(trifluoromethyl)pyrimidin-4-yl)-N-(4-cyanophenethyl)pyrrolidine-2-carboxamide] |
| 100 to 999 | 100 to 999 | N#Cc1ccc(CCNC(=O)[C@@H]2CCCN(c3cc(N4CCN(Cc5cccc6c5OCO6)CC4)nc(C(F)(F)F)n3)C2)cc1 [Compound 319, (R)-1-(6-(4-(benzo[d][1,3]dioxol-4-ylmethyl)piperazin-1-yl)-2-(trifluoromethyl)pyrimidin-4-yl)-N-(4-cyanophenethyl)piperidine-3-carboxamide] |
| < 100 | < 100 | N#Cc1ccc(CCNC(=O)[C@@H]2CCCN(c3cc(OC4CCOCC4)nc(C(F)(F)F)n3)C2)cc1 [Compound 334] |
| 100 to 999 | 100 to 999 | N#Cc1ccc(CCNC(=O)[C@@H]2CCCN2c2cc(-c3ccncc3F)nc(C(F)(F)F)n2)cc1 [Compound 155, (S)-N-(4-cyanophenethyl)-1-(6-(3-fluoropyridin-4-yl)-2-(trifluoromethyl)pyrimidin-4-yl)pyrrolidine-2-carboxamide] |
| 100 to 999 | 100 to 999 | N#Cc1ccc(CCNC(=O)[C@@H]2C[C@@H](O)CN2c2cc(N3CCC(CO)CC3)nc(C(F)(F)F)n2)cc1 [Compound 211, (2S,4R)-N-(4-cyanophenethyl)-4-hydroxy-1-(6-(4-(hydroxymethyl)piperidin-1-yl)-2-(trifluoromethyl)pyrimidin-4-yl)pyrrolidine-2-carboxamide] |
